The text below walks through data of patent US20230219964A1, “ANTIBACTERIAL AND ANTIFUNGAL PLEUROMUTILIN CONJUGATES” (SYDDANSK UNIVERSITET, priority 2020, published 2023).

In brackets after ≈: the same amount, converted by molar mass. Where two headings read alike, the source gives them in different places.

For assay [1], the system named is vancomycin-resistant enterococci (VRE) cells, VRE 5. Description: MIC in vitro broth micro-dilution assay, VRE 5. Type of assay: cell-based. To be noted: Enterococcus, VRE; lowest concentration to fully inhibit visible growth (OD600); clinical isolate, ampicillin, ciprofloxacin, vancomycin and linezolid resistant; read-out: in vitro susceptibility (MIC) VRE 5. Here is the method: (§1) Bacterial susceptibility was established through an in vitro cell-based broth micro-dilution assay. To produce accurate and reproducible MIC-values, a procedure was used which follows the guidelines set by the Clinical and Laboratory Standards Institute (CLSI, USA) and the European Committee on Antimicrobial Susceptibility Testing (EUCAST). The micro-dilutions were carried out in 96-well plates, according to FIG. 3, wherein column 1 is a growth control, Columns 2 to 11 are dilutions of 1×, 2×, 4×, 8×, 16×, 32×, 64×, 128×, 256×, 512× respectively, and column 12 is a sterile control. To further increase the reliability of each susceptibility test, inoculation involved the use of three independent overnight cultures (ON1-ON3) thus giving rise to […]. Furthermore, each ON was added to two individual dilution rows, giving rise to […]. The standard inoculum was set to ˜5-10^5 colony-forming units (CFU) mL^−1. This was verified by dilution onto agar plates after each overall run.
(§2) The applied procedure was:
(§3) 1.1 MH or BHI agar plates for dilutions were created, 1 plate per overnight (ON) culture and MH or BHI media. 1.2 Day 1: Preparation of ON cultures of the bacterial strain in question, by inoculation of a single colony in 5 mL of MH or BHI media. Then incubation at 37° C. with aeration for approximately 16-20 hours. Biological triplicates were created by inoculation from 3 different colonies per strain.
(§4) 1.3 Day 2: A 96-well plate with the antibiotic/compound in question was prepared as according to FIG. 3: 1.4 In a 15 mL falcon tube, an appropriate volume of a 1000 μg/mL antibiotic/compound DMSO stock was diluted with MH or BHI media such that a 2× concentration and total volume of 10 mL was achieved. 1.5 A multi-channel pipette was used in the following. 1.6 Column 1 was used for growth control, so no antibiotic/compound was added to that column. 1.7 200 μl of 2× concentration of the antibiotic/compound was added to column 2. Technical duplicates were always created, thus 2 columns per ON culture. 1.8 100 μl of MH or BHI media was added to columns 1, 3-11 and 200 μl of MH or BHI media to column 12. 1.9 100 μl was transferred from column 2 to column 3. The same pipetting tips were used to transfer 100 μL from column 3 to 4. This scheme was repeated until column 11 where 100 μl was discarded after re-suspending. Column 12 was used as a sterile control, so no antibiotic/compound was added to that column. Each transferring involved pipetting up and down 5 to 7 times. 1.10 The plates were fully dried for CFU in the 42° C. incubator, 4× dilutions in triplicates per one plate.
(§5) 1.11 The optical density of bacterial cells in the ON culture was measured at wavelength 600 nm (OD600). Then the ON culture was diluted to an OD600=0.1. 1.12 Then the OD600 was re-measured to make certain that it was between 0.08 and 0.13. 1.13 The prepared 0.1 culture of 1.12 was diluted 100× more by transferring of 100 μl thereof, to 10 ml of MH or BHI media (enough for a 96-well plate). 1.14 Then 200 μl of the 100× dilution in 1.13 was transferred to Eppendorf tubes and kept cold until use. 1.15 100 μl of culture with an OD600 on approximately 0.001 was dispensed to each well of columns 1 to 11. 1.16 The plate was closed. Covered with aluminium foil and small holes were created with a 100-200 μL tip.
(§6) 1.17 The 96-well plate was then incubated at 37° C. with agitation and left for 16-hours.
(§7) 1.18 Verification of standard inoculum: The 100× diluted culture of 1.13 was used to create 10^−1 to 10^−4 dilutions in PBS/0.9% saline (100 μl sample to 900 μl PBS, mix well and continue until 10^−4). 1.19 10 μl of the 10^−2, 10^−3 and 10^−4 dilutions in 1.18 were spotted onto very dry MH or BHI plates in triplicates. 1.20 Then incubated overnight at 37° C. 1.21 The plates were examined manually or by using the plate reader.
A general note: In broth dilution the organism is exposed to a series of concentrations in liquid medium.

In assay [2] the test system is vancomycin-resistant enterococci (VRE) cells, VRE 1. Description: MIC in vitro broth micro-dilution assay, VRE 1. Type of assay: cell-based. To be noted: Enterococcus, VRE; lowest concentration to fully inhibit visible growth (OD600); clinical isolate, ampicillin, ciprofloxacin and vancomycin resistant; read-out: in vitro susceptibility (MIC) VRE 1. The method, then: as §1, §2, §3, §4, §5, §6, §7

For assay [3], the system named is Multi-resistant Staphylococcus aureus (MRSA) USA300 cells. Description: MIC in vitro broth micro-dilution assay, MRSA USA300. Format: cell-based. To be noted: for MIC: Staphylococcus aureus. Here is the method: as §1, §2, §3, §4, §5, §6, §7
Assay [4] deals with S. pneumonia cells. Description: MIC in vitro broth micro-dilution assay, S. pneumonia. Type of assay: cell-based, Streptococcus pneumonia. To be noted: Streptococcus pneumoniae; lowest concentration to fully inhibit visible growth (OD600); clinical isolate; read-out: in vitro susceptibility (MIC) S. Pneumonia. Here is the method:
as §1, §2, §3, §4, §5, §6, §7

In assay [5] the test system is E. faecalis cells. The experiment in a line: MIC in vitro broth micro-dilution assay, E. faecalis. Type of assay: cell-based, Enterococcus faecalis. To be noted: Enterococcus faecalis; lowest concentration to fully inhibit visible growth (OD600); clinical isolate; read-out: in vitro susceptibility (MIC) E. Faecalis. Here is the method:
as §1, §2, §3, §4, §5, §6, §7

Where [6] appears, read: lowest concentration to fully inhibit visible growth (OD600), ATCC strain, read-out: in vitro susceptibility (MIC) MRSA USA3000.

For the molecule `C=C[C@]1(C)C[C@@H](OC(=O)Cn2cc(-c3ccc(Cn4cnc5c(N)ncnc54)cc3)nn2)[C@]2(C)[C@H](C)CC[C@]3(CCC(=O)[C@H]32)[C@@H](C)[C@@H]1O` [C1], the MIC was determined as 0.25 µg/mL (≈ 0.383 µM) in assay [1]; 0.25 µg/mL (≈ 0.383 µM) in assay [2]; 0.03 µg/mL (≈ 0.046 µM) in assay [3] (setting [6]); 0.03 µg/mL (≈ 0.046 µM) in assay [3] (read-out: MIC value, MRSA USA300 cells); 0.05 µg/mL (≈ 0.0766 µM) in assay [4]; 0.25 µg/mL (≈ 0.383 µM) in assay [5].

For `C=C[C@]1(C)C[C@@H](OC(=O)Cn2cc(-c3ccc(CN4C(=O)c5ccccc5C4=O)cc3)nn2)[C@]2(C)[C@H](C)CC[C@]3(CCC(=O)[C@H]32)[C@@H](C)[C@@H]1O` [C2, 22-[4-(4-((N-phthalimide)methyl)phenyl)-1H-1,2,3-triazol-1-yl]-22-deoxypleuromutilin], the MIC in assay [1] was more than 8 µg/mL; in assay [2], more than 8 µg/mL; in assay [3] (setting [6]), 0.25 µg/mL (≈ 0.376 µM); in assay [4], 4 µg/mL (≈ 6.02 µM); in assay [5], 8 µg/mL (≈ 12 µM).

Regarding `C=C[C@]1(C)C[C@@H](OC(=O)Cn2cc(-c3ccc(CO)cc3)nn2)[C@]2(C)[C@H](C)CC[C@]3(CCC(=O)[C@H]32)[C@@H](C)[C@@H]1O` [C4, 22-[4-(4-(hydroxymethyl)phenyl)-1H-1,2,3-triazol-1-yl]-22-deoxypleuromutilin], the MIC was found to be 1 µg/mL (≈ 1.87 µM) in assay [1]; 1 µg/mL (≈ 1.87 µM) in assay [2]; 0.25 µg/mL (≈ 0.467 µM) in assay [3] (setting [6]); 4 µg/mL (≈ 7.47 µM) in assay [4]; 2 µg/mL (≈ 3.73 µM) in assay [5].

Regarding `C=C[C@]1(C)C[C@@H](OC(=O)Cn2cc(-c3ccc(Cn4cnc5c(N)nc(F)nc54)cc3)nn2)[C@]2(C)[C@H](C)CC[C@]3(CCC(=O)[C@H]32)[C@@H](C)[C@@H]1O` [C5, 22-[4-(4-((6-Amino-2-fluoro-9H-purin-9-yl)methyl)phenyl)-1H-1,2,3-triazol-1-yl]-22-deoxypleuromutilin], the MIC in assay [3] (setting [6]) amounted to 0.06 µg/mL (≈ 0.0894 µM).

With `C=C[C@]1(C)C[C@@H](OC(=O)Cn2cc(-c3ccc(Cn4cnc5c(N)nc(N)nc54)cc3)nn2)[C@]2(C)[C@H](C)CC[C@]3(CCC(=O)[C@H]32)[C@@H](C)[C@@H]1O` [C6, 22-[4-(4-((2,6-Diamino-9H-purin-9-yl)methyl)phenyl)-1H-1,2,3-triazol-1-yl]-22-deoxypleuromutilin], the MIC in assay [1] turned out to be 0.25 µg/mL (≈ 0.374 µM); in assay [2], 0.25 µg/mL (≈ 0.374 µM); in assay [3] (setting [6]), 0.06 µg/mL (≈ 0.0898 µM); in assay [4] it was 0.25 µg/mL (≈ 0.374 µM); in assay [5], 0.25 µg/mL (≈ 0.374 µM).

With `C=C[C@]1(C)C[C@@H](OC(=O)Cn2cc(-c3ccc(Cn4cnc5c(N)ncnc54)nc3)nn2)[C@]2(C)[C@H](C)CC[C@]3(CCC(=O)[C@H]32)[C@@H](C)[C@@H]1O` [C7, 22-[4-(6-((6-Amino-9H-purin-9-yl)methyl)pyridin-3-yl)-1H-1,2,3-triazol-1-yl]-22-deoxypleuromutilin], the MIC in assay [1] was 0.12 µg/mL (≈ 0.184 µM); in assay [2], 0.12 µg/mL (≈ 0.184 µM); in assay [4] it was 0.25 µg/mL (≈ 0.382 µM); in assay [5], 0.25 µg/mL (≈ 0.382 µM). For the same molecule, in assay [3] (lowest concentration to fully inhibit visible growth (OD600), ATCC strain, listed as drawing 80), the “in vitro susceptibility (MIC) MRSA USA3000” value amounted to 0.03 µg/mL.

Turning to `C=C[C@]1(C)C[C@@H](OC(=O)Cn2cc(-c3ccc(Cn4cnc5c(N)ncnc54)c(OC)c3)nn2)[C@]2(C)[C@H](C)CC[C@]3(CCC(=O)[C@H]32)[C@@H](C)[C@@H]1O` [C8, 22-[4-(4-((6-Amino-9H-purin-9-yl)methyl)-3-methoxyphenyl)-1H-1,2,3-triazol-1-yl]-22-deoxypleuromutilin], the MIC in assay [1] was 0.12 µg/mL (≈ 0.176 µM); in assay [2], 0.12 µg/mL (≈ 0.176 µM); in assay [3] (setting [6]), 0.06 µg/mL (≈ 0.0879 µM); in assay [4], 0.25 µg/mL (≈ 0.366 µM); in assay [5], 0.25 µg/mL (≈ 0.366 µM).

In the case of `C=C[C@]1(C)C[C@@H](OC(=O)Cn2cc(-c3ccc(Cn4cnc5c(N)ncnc54)c(O)c3)nn2)[C@]2(C)[C@H](C)CC[C@]3(CCC(=O)[C@H]32)[C@@H](C)[C@@H]1O` [C9, 22-[4-(4-((6-amino-9H-purin-9-yl)methyl)-3-hydroxyphenyl)-1H-1,2,3-triazol-1-yl]-22-deoxypleuromutilin], the minimum inhibitory concentration (MIC) in assay [1] amounted to 0.25 µg/mL (≈ 0.374 µM); in assay [2] it was 0.25 µg/mL (≈ 0.374 µM); in assay [3] (setting [6]), 0.03 µg/mL (≈ 0.0449 µM); in assay [4], 0.25 µg/mL (≈ 0.374 µM); in assay [5], 0.25 µg/mL (≈ 0.374 µM).

For the molecule `C=C[C@]1(C)C[C@@H](OC(=O)Cn2cc(-c3cccc(NC(=O)c4ccccc4)c3)nn2)[C@]2(C)[C@H](C)CC[C@]3(CCC(=O)[C@H]32)[C@@H](C)[C@@H]1O` [C14, 22-[4-(3-benzamidophenyl)-1,2,3-triazole-1-yl]-22-deoxypleuromutilin], in assay [3] (setting [6]), the MIC was 0.5 µg/mL (≈ 0.8 µM).

`C=C[C@]1(C)C[C@@H](OC(=O)Cn2cc(-c3cccc(Oc4ncnc5[nH]cnc45)c3)nn2)[C@]2(C)[C@H](C)CC[C@]3(CCC(=O)[C@H]32)[C@@H](C)[C@@H]1O` [C16, 22-[4-(3-((9H-purin-6-yl)oxy)phenyl)-1,2,3-triazole-1-yl]-22-deoxypleuromutilin]: the minimal inhibitory concentration (MIC) in assay [3] (setting [6]) turned out to be 0.12 µg/mL (≈ 0.188 µM).

`C=C[C@]1(C)C[C@@H](OC(=O)Cn2cc(-c3cccc(Oc4nc(N)nc5[nH]cnc45)c3)nn2)[C@]2(C)[C@H](C)CC[C@]3(CCC(=O)[C@H]32)[C@@H](C)[C@@H]1O` [C17, 22-[4-(3-((2-amino-9H-purin-6-yl)oxy)phenyl)-1,2,3-triazole-1-yl]-22-deoxypleuromutilin]: the MIC in assay [3] (setting [6]) was 0.12 µg/mL (≈ 0.183 µM).

With `C=C[C@]1(C)C[C@@H](OC(=O)CSC2CC[C@@H](N)C[C@H]2O)[C@]2(C)[C@H](C)CC[C@]3(CCC(=O)[C@H]32)[C@@H](C)[C@@H]1O.CC(=O)O` (stereo partly shown) [Lefamulin.Ac, reference compound], the MIC in assay [1] was 0.12 µg/mL; in assay [2] it was 0.12 µg/mL; in assay [4], 0.12 µg/mL; in assay [5], 0.06 µg/mL.

Turning to `C=C[C@]1(C)C[C@@H](CC(=O)Cn2cc(-c3cccc(-n4cnc5c(N)ncnc54)c3)nn2)[C@]2(C)[C@H](C)CC[C@]3(CCC(=O)[C@H]32)[C@@H](C)[C@@H]1O` [prior art compound 7, reference compound], the MIC in assay [3] (setting [6]) stood at 0.06 µg/mL (≈ 0.0942 µM).

For the molecule `C=C[C@]1(C)C[C@@H](CC(=O)Cn2cc(-c3ccc(-n4cnc5c(N)ncnc54)cc3)nn2)[C@]2(C)[C@H](C)CC[C@]3(CCC(=O)[C@H]32)[C@@H](C)[C@@H]1O` [prior art compound 8, reference compound], in assay [3] (setting [6]), the MIC is 0.5 µg/mL (≈ 0.785 µM).

As a reminder, the MIC is the least concentration at which growth counts as inhibited.
